Reference: patent US20170112760A1, “CELL DELIVERY SYSTEM AND METHOD” (The Queen's University of Belfast, priority 2014, published 2017)
pEC50: −log10 of the molar value. Read-outs that look alike come from different tables or passages of the source. Each block holds one compound with its values, some of them ahead of it. Ends that are not written are not given here.

Key:
[1] = system: PC-3 prostate cancer cells; experiment: Cell proliferation assay (manual cell counts), bisphosphonates and RALA/BP nanoparticles; conditions: for maximum cell kill: FIG. 51
Method: FIG. 51: Cell viability was evaluated by manual counting of the viable adherent cells using a haemocytometer. PC-3 prostate cancer cells were seeded in a 96-well flat-bottom tissue culture plate at a density of 1×10^4 cells per well and incubated in complete culture medium for 24 h. Two hours prior to transfection the cells were conditioned in OptiMEM serum-free medium and subsequently treated with solutions of BP to achieve a final exposure concentration of 5 μM to 1 mM. RALA/BP nanoparticles were prepared using a mass ratio of 10:1 such that the final concentration of BP per well was in the range 5 μM to 75 μM. Cells were incubated at 37° C. with 5% CO2 for 6 h before medium was replaced with completed culture medium and left to incubate for 72 h. Following incubation the cells were trypsinised and counted. Cell viability was expressed as a percentage of the untreated control where the untreated control is considered to be 100% viable. Dose-response curves were obtained for free BP and RALA/BP allowing determination of EC50 values for each. EC50 values refer to the concentration that induces a response halfway between the baseline and the maximum plateau obtained.
Cell viability was evaluated by manual counting of the viable adherent cells using a haemocytometer as described in. PC-3 prostate cancer cells were seeded in a 96-well flat-bottom tissue culture plate at a density of 1×10^4 cells per well and incubated in complete culture medium for 24 h. Two hours prior to transfection the cells were conditioned in OptiMEM serum-free medium (Invitrogen, UK) optimised for transfection. Cells were treated with solutions of BP to achieve a final exposure concentration of 5 μM to 1 mM. RALA/BP nanoparticles were prepared using a mass ratio of 10:1 such that the final concentration of BP per well was in the range 5 μM to 75 μM. Cells were incubated at 37° C. with 5% CO2 for 6 h before medium was replaced with completed culture medium and left to incubate for 72 h. Following incubation the cells were trypsinised and counted. Cell viability was expressed as a percentage of the untreated control where the untreated control is considered to be 100% viable. Dose-response curves were obtained for free BP and RALA/BP allowing determination of EC50 values for each. EC50 values refer to the concentration that induces a response halfway between the baseline and the maximum plateau obtained (FIG. 46, 51).

[2] = system: PC-3 prostate cancer cell xenograft; experiment: PC-3 xenograft model, intratumoural RALA/alendronate; assay type: in vivo, BALB-C SCID mice; conditions: thrice weekly
ZR-75-1 cells = experiment: Transfection with peptide/pEGFP-N1 nanoparticles, GFP expression by flow cytometry; assay type: cell-based; conditions: for Transfection Efficiency in ZR-75-1 Cells: peptide/DNA nanoparticles, N:P10
Method: In order to test the RALA in vitro, small scale transfections were performed carried out. 5×10^4 cells were seeded onto each well of a 96 well plate and the cells incubated under with complete medium standard conditions for 48 hours. The medium was subsequently removed from the plates and 100 μl of transfection medium (Optimem Invitrogen, UK) was added to each well. Cells were incubated for 2 hours at 37° C. and 5% CO2 standard conditions. In the meanwhile complexes were made up using 1 μg of plasmid DNA with the RALA vector and added to the cells when the two hours had passed. 100 μl of the each N:P ratio were added to each well of the cells. Cells were then incubated for a further 4 hours under standard conditions and the medium with RPMI-1640 supplemented with +10% FCS. (FIG. 4, 31(+Chloroquine), 32 (+Bafilomycin), 33 (+KALA NPs), 34 (+Lipofectamine), 35).
ZR-75-1 & PC-3 cells that were transfected with RALA/pEGFP-N1 complexes were trypsinised and washed twice with 2% formaldehyde in phosphate buffered saline. The expression of green fluorescent protein was measured by flow cytometry using FACS calibur system (BD Bioscience, UK). The data was analysed using the Flo-Jo software program and fluorescent intensity is reported at 4% gating. (FIG. 7b, 11, 31, 32, 33, 34, 35, 57 (+RAT/pEGFP-N1)).

[3] = Nanoparticle size and charge analysis (DLS, zeta potential, Malvern Zetasizer); assay type: physicochemical; conditions: peptide/DNA nanoparticles, N:P10
Method: In order to obtain particle size and charge distributions the mean hydrodynamic particle size measurements RALA complexes were performed using Dynamic Light Scattering (DLS). Dynamic Light Scattering is based upon the principle that when particles are illuminated with a laser, due to Brownian motion there will be scattering of the light. The intensity of the scattered light fluctuates as a result of this Brownian motion caused by bombardment of the particles by solvent molecules. A correlation curve reflecting the decay rate is generated based on fluctuations of the scattered light where a slower correlation decay rate represents a slower moving particle. Based on the Stokes-Einstein equation larger particles move more slowly and, thus, the correlation function can be used to determine the size distribution of the particles. dynamic light scattering (DLS) was used.
Surface charge measurements of the RALA nanoparticles were determined by Laser Doppler Velocimetry. The zeta potential of the particles was measured using disposable foltable zeta cuvettes. Zeta cuvettes for the measurement of zeta potential were first washed with 70% ethanol, followed by two rinses with double distilled H2O prior to loading the sample. Enough diluted sample used for size measurement was used for determination of zeta potential.
The nanoparticles were made up at an appropriate range of N:P ratios with at least using 2 μg of DNA in each sample. Nanoparticles were analysed using either and analysis was completed on either the Zetasizer-HS3000 (Malvern Instruments) or the Zetasizer-Nano instrument with DTS software (Malvern Instruments, UK). Zetasizer-Nano (Malvern Instruments) (FIGS. 3, 9, 17-21, 41, 48 & 55).

[4] = Immune response on repeated intravenous administration (ELISAs, Greiss test); assay type: in vivo, C57/BL6 mice; conditions: first week
Method: FIG. 8: Immune response of C57BL/6 mice injected with PBS only, PEI only, RALA only, DNA only, PEI/DNA or RALA/DNA nanoparticles. For each injection the equivalent to N:P 10 with 10 μg of DNA was injected. Mice received one injection per week for three weeks. 48 h after each injection three mice were sacrificed and the serum was extracted for analysis. a) IgG, b) IgM, c) IL-1β, d) IL-6 and e) Greiss test for total nitrites.
For the harvesting of blood and intraperitoneal macrophages, cervical dislocation was the preferred method of euthanasia. Cardiac puncture was performed using a 21 G gauge needle (BD Biosciences, UK). The needle was placed horizontally slightly to the left side of the sternum to go up through the diaphragm. The needle was then withdrawn very slowly until 500 μl of blood was collected and placed in an eppendorf. The eppendorf was then stored at room temperature with an open lid to facilitate coagulation. After 30 min the eppendorfs were centrifuged at 2000 rpm for 10 min. The supernatant containing the serum was carefully decanted and placed into a clean eppendorf and stored at −20° C. until further use. When harvesting intraperitoneal macrophages an incision was made and the peritoneal cavity was flushed out with 30% sucrose (Sigma, UK) solution. The macrophages were stored at 4° C. until they could be cultured (FIG. 8). […]

Compound: NCCCC(O)(P(=O)(O)O)P(=O)(O)O [alendronate]
pEC50 ([1]; FIG. 16: 10 μM to 250 μM, six hours, 72 hours recovery): 4.01
pEC50 ([1]; FIG. 51: 6 h treatment, 72 h incubation, mass ratio 10:1): 4.00
effect on tumour growth vs untreated control [2]: high statistical significance when compared to the untreated control

Compound: CC(O)(P(=O)(O)O)P(=O)(O)O [etidronate]
percentage cell survival with increasing BP ([1]; FIG. 51d): no reduction in percentage cell survival with increasing BP

Compound: O=P(O)(O)C(O)(Cc1cccnc1)P(=O)(O)O [risedronate]
pEC50 [1]: 4.11
maximum cell kill [1]: 20%

pEC50 [1]: 4.56
Compound: O=P(O)(O)C(O)(Cn1ccnc1)P(=O)(O)O [zoledronate]
maximum cell kill [1]: 82%

Compound: REARLARALARALARELARALARALRAREA (amphipathic peptide sequence (Table 2)) [Peptide 6, H Replaced with E and W replaced with R and C replaced with R]
Transfection Efficiency in ZR-75-1 Cells (ZR-75-1 cells): 43%
Best Size (nm) [3]: 308 nm
Charge (mV) [3]: 6 mV

Compound: REARLARALARALARLARALARALRACEA (amphipathic peptide sequence (Table 2)) [Peptide 4, H Removed and W replaced with R]
Transfection Efficiency in ZR-75-1 Cells (ZR-75-1 cells): 50%
Charge (mV) [3]: 12 mV

Compound: REARLARALARALARLARALARALRAREA (amphipathic peptide sequence (Table 2)) [Peptide 5, H Removed and W replaced with R and C replaced with R]
Transfection Efficiency in ZR-75-1 Cells (ZR-75-1 cells): 46%
Charge (mV) [3]: 13 mV

Compound: WEARLARALARALARELARALARALRACEA (amphipathic peptide sequence (Table 2)) [Peptide 3, H replaced with glutamic acid (E)]
Transfection Efficiency in ZR-75-1 Cells (ZR-75-1 cells): 41%
Charge (mV) [3]: 24 mV

Compound: WEARLARALARALARHLARALARALRACEA [RALA]
TNFα response [4]: significantly lower initial response of TNFα than the PEI only treated animals

Compound: WEARLARALARALARHLRACEA (22mer protein sequence (Table 2)) [Peptide 22mer, comparative peptide, reference compound]
ability to condense DNA into nanoparticles and transfect cells (ZR-75-1 cells): unable to condense DNA into nanoparticles and transfect cells

Compound: WEARLARALARALARLARALARALRACEA (amphipathic peptide sequence (Table 2)) [Peptide 2, H removed]
Transfection Efficiency in ZR-75-1 Cells (ZR-75-1 cells): 55%
Charge (mV) [3]: 22 mV
